Results reported in patent US20130116206A1, “QUINOLINE DERIVATIVES USED AS PET IMAGING AGENTS” (IMPERIAL INNOVATIONS LIMITED, priority 2009, published 2013).
Counter-ions that a name gives are not always drawn. Like-named read-outs stand apart in the source and are kept apart here.

What was measured:
[1] = target: T1, EGFR kinase (Homo sapiens, UniProt P00533); assay: EGFR tyrosine kinase enzyme inhibition assay (cell free, DELFIA time resolved fluorescence); assay type: biochemical; settings: for IC50 / EGFR kinase activity IC50, range in words: cell free kinase assay
T1 construct: purchased Sigma E-3641
Experimental: Assessment of the EGFR tyrosine kinase activity of control quinoline 1 together with quinolines 10, 13, 14, 17, 18, 24 and 25 was carried out using a cell free kinase activity inhibition assay as detailed below. BPDQ (4-N-(3-bromophenyl)quinazoline-4,6,7-triamine), a quinazoline based EGFR inhibitor was also included in this assay as a further reference standard.
The inhibitory activity of quinolines 1, 10, 13, 14, 17, 18, 24 and 25 against EGFR kinase activity was measured by a time resolved fluorescence assay (DELFIA, Perkin-Elmer Life Sciences, Boston, Mass., USA). […] The reaction proceeded at rt for 1 h and was stopped by addition of 100 mM EDTA. The enzyme reaction solution was diluted and aliquots added to 96-well ELISA streptavidin plates with shaking for 1 h. The plates were washed and phosphorylated Tyrosine was detected with Eu-labeled antiphosphotyrosine antibody (50 ng/well; PT66; PerkinElmer). After washing and enhancement steps, the plates were assessed in a Victor^3 multi-label counter (PerkinElmer) using the EGFR Europium protocol.

[2] = target: T2, EGFR autophosphorylation in A431 cells (Homo sapiens, UniProt P00533); assay: Inhibition of EGFR autophosphorylation in A431 cells (Western blot p-EGFR/total EGFR); assay type: cell-based; settings: for IC50: 3 h drug incubation then washing with drug free medium, mean ± sem, n = 3
T2 construct: highly EGFR-expressing A431 cells; endogenous in cells; host or cells: A431 human epidermoid cancer cells (ATCC)
Experimental: The ability of the compounds to be transported across cell membranes and to inhibit EGFR autophosphorylation was examined in highly EGFR-expressing A431 cells.
The cells were maintained in DMEM (Sigma-Aldrich Company Ltd, Dorset, UK) supplemented with 10% fetal bovine serum (Lonza, UK), and 2 mM L-glutamine, 100 U/ml penicillin, 100 μg/mL streptomycin and 1 μg/mL fungizone (GIBCO) in 6 well plates incubated at 37° C. in a humidified incubator with 5% CO2. The experiments were designed to assess irreversibility of EGFR inhibition by the compounds. Cells in exponential growth were incubated with quinolines 1, 10, 13, 14, 17, 18, 24 and 25 at various concentrations for 3 h. EGF (100 ng/ml) was added to the cells during the last 15 min to induce p-EGFR. The medium was removed and replaced with fresh compound-free medium for 1 h. The last step was then repeated twice. The cells were then washed with cold PBS and lysed in RIPA buffer (Invitrogen Ltd, Paisley, UK) supplemented with protease and phosphatase inhibitor cocktails (Sigma-Aldrich Company Ltd, Dorset, UK). Lysates were clarified by centrifugation. The following antibodies were used: rabbit polyclonal antibody anti-p-EGFR (Cell signalling Technology, Denver, Mass.; 1:1000) and rabbit polyclonal antibody anti-EGFR (Santa Cruz Biotechnology, Santa Cruz, Calif.; 1:1000) and mouse monoclonal antibody anti-β-actin (Abcam, UK; 1:10000) as primary antibodies. The secondary antibodies were Goat anti Rabbit IgG HRP (Santa Cruz Biotechnology Santa Cruz, Calif.; 1:2000) and Goat anti Mouse IgG HRP (Autogen Bioclear, UK; 1:2000). The same procedure was used to assess EGFR and phospho-EGFR expression in HCT116 human colon carcinoma cells.

[3] = 25 μM ATP, read-out: IC50 (nM) EGFR kinase activity

T1 sequence (P00533 25-1210): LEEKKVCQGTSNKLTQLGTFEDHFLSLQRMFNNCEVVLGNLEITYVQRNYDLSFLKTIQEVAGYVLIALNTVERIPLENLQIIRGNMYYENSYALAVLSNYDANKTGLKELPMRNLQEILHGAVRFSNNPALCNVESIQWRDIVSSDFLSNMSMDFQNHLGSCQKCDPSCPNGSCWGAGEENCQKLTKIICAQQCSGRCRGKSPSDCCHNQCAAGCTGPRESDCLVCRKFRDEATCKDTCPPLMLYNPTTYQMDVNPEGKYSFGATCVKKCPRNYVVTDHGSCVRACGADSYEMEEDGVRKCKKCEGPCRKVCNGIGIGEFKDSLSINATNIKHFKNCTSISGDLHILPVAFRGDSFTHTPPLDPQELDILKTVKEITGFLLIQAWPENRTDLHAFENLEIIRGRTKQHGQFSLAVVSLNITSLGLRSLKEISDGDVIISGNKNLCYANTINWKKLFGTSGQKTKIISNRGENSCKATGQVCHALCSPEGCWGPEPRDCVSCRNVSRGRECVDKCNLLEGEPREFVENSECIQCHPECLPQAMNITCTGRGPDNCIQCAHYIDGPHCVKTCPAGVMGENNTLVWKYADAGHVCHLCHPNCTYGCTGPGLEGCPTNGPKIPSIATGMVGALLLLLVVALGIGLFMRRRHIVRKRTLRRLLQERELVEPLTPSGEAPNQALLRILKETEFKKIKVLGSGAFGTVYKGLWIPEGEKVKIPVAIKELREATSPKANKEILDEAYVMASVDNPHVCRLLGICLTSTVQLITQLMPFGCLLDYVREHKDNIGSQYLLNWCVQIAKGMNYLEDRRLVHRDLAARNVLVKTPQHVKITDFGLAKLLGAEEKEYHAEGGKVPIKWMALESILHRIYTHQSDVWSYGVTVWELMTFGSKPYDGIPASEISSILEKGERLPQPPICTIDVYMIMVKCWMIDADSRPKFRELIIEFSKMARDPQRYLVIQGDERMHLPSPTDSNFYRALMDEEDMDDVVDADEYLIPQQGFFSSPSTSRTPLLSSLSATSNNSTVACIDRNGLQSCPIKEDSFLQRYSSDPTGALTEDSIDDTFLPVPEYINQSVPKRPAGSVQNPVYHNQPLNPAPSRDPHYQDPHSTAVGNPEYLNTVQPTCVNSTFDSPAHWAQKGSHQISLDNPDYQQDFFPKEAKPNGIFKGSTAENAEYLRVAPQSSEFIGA
T2 sequence (P00533 25-1210): as above

SMILES	IC50 [1, 3] [nM]	EGFR kinase activity IC50, range in words [1]	Cellular EGFR autophosphorylation inhibition, IC50 in words [2]	IC50 [2] [nM]	EGFR kinase activity relative to quinoline 18 ([1]; 17 compared with 18)	IC50 ([1]; read-out: EGFR kinase activity IC50) [nM]
Nc1cc2ncnc(Nc3cccc(Br)c3)c2cc1N [BPDQ, 4-N-(3-bromophenyl)quinazoline-4,6,7-triamine, reference compound]	0.81 ± 0.01	–	–	–	–	–
CCOc1cc2ncc(C#N)c(Nc3ccc(F)c(Cl)c3)c2cc1NC(=O)/C=C/CN(C)CCF [compound 13, (E)-4-[(2-Fluoroethyl)methylamino]-but-2-enoic acid [4-(3-chloro-4-fluorophenylamino)-3-cyano-7-ethoxyquinoline-6-yl]amide]	0.8 ± 0.04	sub-nanomolar	low nanomolar range	23 ± 12	–	–
CCOc1cc2ncc(C#N)c(Nc3ccc(F)c(Cl)c3)c2cc1NC(=O)/C=C/CN(C)Cc1ccc(F)cc1 [compound 14, (E)-4-[(4-Fluorobenzyl)methylamino]-but-2-enoic acid [4-(3-chloro-4-fluorophenylamino)-3-cyano-7-ethoxyquinoline-6-yl]amide]	0.57 ± 0.12	sub-nanomolar	low nanomolar range	16.5 ± 8.38	–	–
CCOc1cc2ncc(C#N)c(Nc3ccc(F)c(Cl)c3)c2cc1NC(=O)/C=C/CNCc1cn(CCF)nn1 [compound 17, (E)-4-{[1-(2-Fluoro-ethyl)-1H-[1,2,3]triazol-4-ylmethyl]-amino}-but-2-enoic acid [4-(3-chloro-4-fluoro-phenylamino)-3-cyano-7-ethoxy-quinolin-6-yl]-amide hydrochloride]	1.81 ± 0.18	–	low nanomolar range	22 ± 9.06	two-fold more active than 18	–
C#CCNC/C=C/C(=O)Nc1cc2c(Nc3ccc(F)c(Cl)c3)c(C#N)cnc2cc1OCC.Cl [compound 25, (E)-4-Prop-2-ynylaminobut-2-enoic acid [4-(3-chloro-4-fluorophenylamino)-3-cyano-7-ethoxy-quinolin-6-yl]-amide hydrochloride]	–	–	low nanomolar range	60.2 ± 17.1	–	0.03

Second part, the compound after the results:

IC50 [1, 3] [nM]	EGFR kinase activity IC50, range in words [1]	Cellular EGFR autophosphorylation inhibition, IC50 in words [2]	IC50 [2] [nM]	EGFR kinase activity relative to quinoline 18 ([1]; 17 compared with 18)	IC50 ([1]; read-out: EGFR kinase activity IC50) [nM]	SMILES
0.25 ± 0.06	sub-nanomolar	low nanomolar range	5.35 ± 1.52	–	–	CCOc1cc2ncc(C#N)c(Nc3ccc(F)c(Cl)c3)c2cc1NC(=O)/C=C/CNC [compound 10, (E)-4-(Methylamino)-but-2-enoic acid [4-(3-chloro-4-fluorophenylamino)-3-cyano-7-ethoxy-quinoline-6-yl]amide]
0.29 ± 0.03	–	low nanomolar range	8.12 ± 2.03	–	–	CNC/C=C/C(=O)Nc1cc2c(Nc3ccc(F)c(Cl)c3)c(C#N)cnc2cc1OCCF.Cl [compound 24, (E)-4-Methylamino-but-2-enoic acid [4-(3-chloro-4-fluorophenylamino)-3-cyano-7-(2-fluoroethoxy)-quinolin-6-yl]-amide hydrochloride]
